The record followed here is patent publication US20090281054A1, “COMPOSITIONS AND METHODS COMPRISING CAPURAMYCIN ANALOGUES” (priority 2008, published 2009).

Values after ≈ are worked out from the molar mass of the structure shown. Read-outs that look alike come from different tables or passages of the source.

Assay [1] deals with M. smegmatis (MSMG; MC2155). Briefly: MIC by microdilution method in 7H9 broth. Type of assay: cell-based. Particulars: MSMG MC^2155, 72 hr. For orientation: Dilution methods test growth across graded concentrations, often in twofold steps.
For another assay, the system named is M. avium complex (MAC). Put plainly: MIC by microdilution method in 7H9 broth. It is filed as cell-based. Particulars: for MIC90: value in square brackets.
Assay [2] relates to M. abscessus (MAB; ATCC 700869). Put plainly: MIC by microdilution method in 7H9 broth. It is filed as cell-based. Particulars: MAB 700869.
The test system of assay [3] is M. kansaii (MKN; ATCC12478 & 35775). Put plainly: MIC by microdilution method in 7H9 broth. Type of assay: cell-based, M. kansasii.
The target of the next assay is translocase I (Escherichia coli, UniProt P0A6W3). Put plainly: IC50 against translocase I. It is filed as biochemical.
For the next assay, the system named is MTB in J774A.1 cells. Put plainly: Intracellular activity of SQ641 with efflux pump blockers. It is filed as cell-based, Mycobacterium tuberculosis. Particulars: J774A.1 cells; VE and CsA at 10 μM.
The test system of another assay is MAC. Briefly: Synergy by checkerboard titration (microdilution). Particulars: for MIC: Mycobacterium avium, drug alone. Type of assay: cell-based, M. avium complex.
Where [4] appears, read: Mycolicibacterium smegmatis, MC2155|MC^2155, read-out: MIC.
The mark [5] stands for this setting: Mycobacterium avium, MAC strain 100, read-out: MIC.
Where [6] appears, read: Mycobacterium avium, MAC strain 101, read-out: MIC.
Setting [7] is: Mycobacterium avium, MAC strain 104, read-out: MIC.
[8] abbreviates: Mycobacterium avium, MAC strain 109, read-out: MIC.
The mark [9] stands for this setting: Mycobacterium avium, MAC strain A5, read-out: MIC.
The mark [10] stands for this setting: Mycobacterium avium, MAC strain JSH1, read-out: MIC.
Where [11] appears, read: Mycobacterium avium, MAC strain NIH C1-1, read-out: MIC.
[12] abbreviates: Mycobacterium avium, MAC strain NIH C1-2, read-out: MIC.
The mark [13] stands for this setting: Mycobacterium avium, MAC strain NIH C1-3, read-out: MIC.
Setting [14] is: Mycobacterium avium, MAC strain NIH C1-4, read-out: MIC.
Where [15] appears, read: Mycobacterium avium, MAC isolates, read-out: MIC90.
The mark [16] stands for this setting: Mycobacteroides abscessus, ATCC700869, read-out: MIC.
Setting [17] is: Mycobacterium kansasii, ATCC 12478 / ATCC 35775, MKN ATCC35775, read-out: MIC.
[18] abbreviates: Mycobacterium kansasii, MKN ATCC12478, read-out: MIC.

translocase I, sequence (P0A6W3 whole entry): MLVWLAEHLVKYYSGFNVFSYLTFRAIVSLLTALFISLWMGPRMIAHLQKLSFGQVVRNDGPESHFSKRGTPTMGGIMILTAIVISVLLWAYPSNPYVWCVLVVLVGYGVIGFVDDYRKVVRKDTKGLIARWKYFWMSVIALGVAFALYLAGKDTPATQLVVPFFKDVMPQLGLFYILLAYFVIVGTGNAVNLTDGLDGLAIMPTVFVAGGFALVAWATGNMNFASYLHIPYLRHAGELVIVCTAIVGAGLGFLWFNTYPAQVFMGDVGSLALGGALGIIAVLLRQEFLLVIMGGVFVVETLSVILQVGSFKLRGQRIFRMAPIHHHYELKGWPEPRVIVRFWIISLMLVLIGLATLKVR

Consider `O=C(O)c1cn(C2CC2)c2cc(N3CCNCC3)c(F)cc2c1=O` [CIP, reference compound], for which the MIC in assay [1] is 0.5 µg/mL (≈ 1.51 µM); in assay [2], more than 32 µg/mL; in assay [3] (MKN ATCC12478), 2 µg/mL (≈ 6.04 µM); in assay [3] (MKN ATCC35775), 0.25 µg/mL (≈ 0.754 µM). Besides, the “MIC range” value in the assay with M. avium complex (MAC) (MAC isolates, 2 wk) was in the range of 0.125 to 32 µg/mL. In the assay on M. avium complex (MAC) (MAC isolates), this molecule registered an MIC90 of 2 µg/mL (≈ 6.04 µM).

With `CO[C@H]1[C@@H](O)[C@H](n2ccc(=O)[nH]c2=O)O[C@@H]1[C@@H](O[C@H]1OC(C(=O)Nc2cccc(F)c2)=C[C@H](O)[C@@H]1O)C(N)=O` [RKS2186], on translocase I, the “IC50 against translocase I” value was 0.01 µg/mL (≈ 0.0181 µM). Further, the MIC in assay [1] (setting [4]) amounted to 4 µg/mL (≈ 7.24 µM); in the assay with M. avium complex (MAC) (setting [5]), 2 µg/mL (≈ 3.62 µM); with M. avium complex (MAC) (setting [6]), 2 µg/mL (≈ 3.62 µM); with M. avium complex (MAC) (setting [7]), 1 µg/mL (≈ 1.81 µM); with M. avium complex (MAC) (setting [8]), 1 µg/mL (≈ 1.81 µM); in the assay with M. avium complex (MAC) (setting [9]) it was 1 µg/mL (≈ 1.81 µM). For the same molecule, the MIC is 4 µg/mL (≈ 7.24 µM) with M. avium complex (MAC) (setting [10]); 8 µg/mL (≈ 14.5 µM) in the assay on M. avium complex (MAC) (setting [11]); 2 µg/mL (≈ 3.62 µM) in the assay with M. avium complex (MAC) (setting [12]); 8 µg/mL (≈ 14.5 µM) in the assay with M. avium complex (MAC) (setting [13]); 2 µg/mL (≈ 3.62 µM) in the assay on M. avium complex (MAC) (setting [14]); 16 µg/mL (≈ 29 µM) in assay [2] (setting [16]). The minimum inhibitory concentration (MIC) was 4 µg/mL (≈ 7.24 µM) in assay [3] (setting [17]) and more than 32 µg/mL in assay [3] (setting [18]). In addition, the MIC90 with M. avium complex (MAC) (setting [15]) was determined as 8 µg/mL (≈ 14.5 µM).

Take `CCCN(CCC)S(=O)(=O)c1ccc(C(=O)O)cc1` [PB, probenecid, reference compound]: the “Effect of efflux pump blocker on intracellular activity of SQ641 against MTB” value in the assay with MTB in J774A.1 cells is on record as “only moderate effects”.

Regarding `NCC[C@H](O)C(=O)N[C@@H]1C[C@H](N)[C@@H](O[C@H]2O[C@H](CN)[C@@H](O)[C@H](O)[C@H]2O)[C@H](O)[C@H]1O[C@H]1O[C@H](CO)[C@@H](O)[C@H](N)[C@H]1O` [AMK, amikacin, reference compound], the MIC in assay [1] (setting [4]) was 0.5 µg/mL (≈ 0.854 µM); with M. avium complex (MAC) (setting [5]), 8 µg/mL (≈ 13.7 µM); with M. avium complex (MAC) (setting [6]) it was 2 µg/mL (≈ 3.42 µM); with M. avium complex (MAC) (setting [7]) it was 16 µg/mL (≈ 27.3 µM); with M. avium complex (MAC) (setting [8]), 1 µg/mL (≈ 1.71 µM); in the assay with M. avium complex (MAC) (setting [9]) it was 4 µg/mL (≈ 6.83 µM). The MIC with M. avium complex (MAC) (setting [10]) amounted to 8 µg/mL (≈ 13.7 µM); in the assay with M. avium complex (MAC) (setting [11]), 8 µg/mL (≈ 13.7 µM); in the assay on M. avium complex (MAC) (setting [12]), 32 µg/mL (≈ 54.6 µM); in the assay on M. avium complex (MAC) (setting [13]), 8 µg/mL (≈ 13.7 µM); in the assay with M. avium complex (MAC) (setting [14]), 4 µg/mL (≈ 6.83 µM); in the assay on MAC (MAC A5) it was 2 µg/mL. Further, the MIC in the assay on MAC (MAC JSH1) was found to be 16 µg/mL; with MAC (MAC NIH C1-1) it was 8 µg/mL; in assay [2] (setting [16]), 4 µg/mL (≈ 6.83 µM); in assay [3] (setting [17]) it was 2 µg/mL (≈ 3.42 µM); in assay [3] (setting [18]), 2 µg/mL (≈ 3.42 µM). For the same molecule, the MIC90 in the assay on M. avium complex (MAC) (setting [15]) came to 16 µg/mL (≈ 27.3 µM). For the same molecule, the “MIC Combination” value in the assay on MAC (MAC A5, combination SQ641 + AMK) stood at 0.5 µg/mL; with MAC (MAC JSH1, combination SQ641 + AMK), 8.0 µg/mL; in the assay on MAC (MAC NIH C1-1, combination SQ641 + AMK), 4.0 µg/mL.

For `CC[C@H]1OC(=O)[C@H](C)[C@@H](O[C@H]2C[C@@](C)(OC)[C@@H](O)[C@H](C)O2)[C@H](C)[C@@H](O[C@@H]2O[C@H](C)C[C@H](N(C)C)[C@H]2O)[C@](C)(OC)C[C@@H](C)C(=O)[C@H](C)[C@@H](O)[C@]1(C)O` [CLA, clarithromycin, reference compound], the MIC in assay [1] (setting [4]) was 2 µg/mL (≈ 2.67 µM); in the assay with M. avium complex (MAC) (Mycobacterium avium, 336 h, MAC isolates, 2 wk, read-out: MIC (range)), 0.062 to 32 µg/mL (≈ 0.0829 to 42.8 µM); with M. avium complex (MAC) (setting [5]), 0.25 µg/mL (≈ 0.334 µM); in the assay on M. avium complex (MAC) (setting [6]) it was 0.125 µg/mL (≈ 0.167 µM); in the assay on M. avium complex (MAC) (setting [7]), 0.5 µg/mL (≈ 0.668 µM); in the assay with M. avium complex (MAC) (setting [8]), 0.062 µg/mL (≈ 0.0829 µM). The minimal inhibitory concentration (MIC) with M. avium complex (MAC) (setting [9]) came to 0.125 µg/mL (≈ 0.167 µM); in the assay on M. avium complex (MAC) (setting [10]), 2 µg/mL (≈ 2.67 µM); in the assay with M. avium complex (MAC) (setting [11]) it was 1 µg/mL (≈ 1.34 µM); in the assay with M. avium complex (MAC) (setting [12]) it was 0.25 µg/mL (≈ 0.334 µM); in the assay with M. avium complex (MAC) (setting [13]), 32 µg/mL (≈ 42.8 µM); in the assay on M. avium complex (MAC) (setting [14]) it was 1 µg/mL (≈ 1.34 µM). The MIC was 0.125 µg/mL in the assay with MAC (MAC A5); 1 µg/mL in the assay with MAC (MAC JSH1); 2 µg/mL in the assay on MAC (MAC NIH C1-1); more than 32 µg/mL in assay [2] (setting [16]); 0.25 µg/mL (≈ 0.334 µM) in assay [3] (setting [17]); 0.25 µg/mL (≈ 0.334 µM) in assay [3] (setting [18]). The MIC90 in the assay on M. avium complex (MAC) (setting [15]) was 2 µg/mL (≈ 2.67 µM). For the same molecule, the “MIC Combination” value with MAC (MAC A5, combination SQ641 + CLA) is 0.031 µg/mL; with MAC (MAC JSH1, combination SQ641 + CLA) it was 1 µg/mL; in the assay on MAC (MAC NIH C1-1, combination SQ641 + CLA) it was 2.0 µg/mL.

As a reminder, the MIC is the smallest concentration in the dilution series that meets the test's criterion for growth inhibition. By MIC90 is commonly meant the lowest concentration that inhibits either 90% of growth or 90% of the strains tested, depending on the study.
